Assay results from patent publication US20080214563A1, “Benzimidazole Thiophene Compounds As Plk Modulators” (priority 2005, published 2008).

Columns and labels:
Type in all cases: cell-based
BT474 = assay: Cell-Titer Glo Cell Growth Inhibition Assay, BT474; conditions: Homo sapiens; CellTiter-Glo, 72 h, BT 474; read-out: CTG BT 474 IC50
Description: (§1) A549-L (human lung), BT474 (human breast), Colo 205 (human colon), H1299 (human lung), Hela (human cervix), HCT-116 (human colon), HN5 (human head and neck), HT29 (human colon), LNCap (human prostate), MCF7 (human breast), MDA-MB468 (human breast), MX-1 (human breast), RPMI 8226 (human peripheral blood), SKOV3 (human ovary) and P388 (murine leukemia) cell lines were cultured in RPMI1640 containing 10% fetal bovine serum at 37° C. in a 5% CO2 incubator. Cell lines were split into T75 flasks (Falcon #353136) two to three days prior to assay set up at density which yields approximately 70-80% confluency at time of harvest for assay. Cells were harvested using 0.25% trypsin with EDTA (Glibco/Invitrogen #25200-056), Cell counts were performed on cell suspensions using Trypan Blue exclusion staining, cells were then plated in 105 uL of culture media per well at the following densities in 96 well Costar #3916 black flat bottom plates: All human cell lines were plated at 500 cells/well. P388 were plated at 250 cells/well. All plates were placed at 5% CO2 37° C. overnight and then test compounds were added the following day. One plate of each cell type is treated with CellTiter-Glo (Promega #G7573) for a day 0 proliferation measurement and read as described below. […]

Hela = assay: Cell-Titer Glo Cell Growth Inhibition Assay, Hela; conditions: Homo sapiens, CellTiter-Glo, 72 h, read-out: CTG Hela IC50
Description: as §1

HN5 = assay: Cell-Titer Glo Cell Growth Inhibition Assay, HN5; conditions: Homo sapiens, CellTiter-Glo, 72 h, read-out: CTG HN5 IC50
Description: as §1

LNCap = assay: Cell-Titer Glo Cell Growth Inhibition Assay, LNCap; conditions: Homo sapiens, CellTiter-Glo, 72 h, read-out: CTG LNCap IC50
Description: as §1

MCF7 = assay: Cell-Titer Glo Cell Growth Inhibition Assay, MCF7; conditions: Homo sapiens, CellTiter-Glo, 72 h, read-out: CTG MCF7 IC50
Description: as §1

MDA-MB468 = assay: Cell-Titer Glo Cell Growth Inhibition Assay, MDA-MB468; conditions: Homo sapiens, MDA-MB-468, CellTiter-Glo, 72 h, read-out: CTG MDA-MB468 IC50
Description: as §1

H1299 = assay: Cell-Titer Glo Cell Growth Inhibition Assay, H1299; conditions: Homo sapiens, NCI-H1299, CellTiter-Glo, 72 h, read-out: CTG H1299 IC50
Description: as §1

RPMI 8226 = assay: Cell-Titer Glo Cell Growth Inhibition Assay, RPMI 8226; conditions: Homo sapiens, CellTiter-Glo, 72 h, read-out: CTG RPMI 8226 IC50
Description: as §1

Measured: IC50

C[C@@H](Oc1cc(-n2cnc3cc(-c4cnn(C)c4)ccc32)sc1C(N)=O)c1ccccc1Cl [Example 9, 3-{[(1R)-1-(2-Chlorophenyl)ethyl]oxy}-5-[5-(1-methyl-1H-pyrazol-4-yl)-1H-benzimidazol-1-yl]-2-thiophenecarboxamide]
< 100 nM: all assays above
